Literature values in patent publication US20070161683A1, “Certain chemical entities, compositions, and methods” (priority 2005, published 2007).

System: A549 cells
Conditions: concentration that decreases the rate of cell growth by fifty percent

SMILES	GI50 [nM]
CC(=O)O[C@H]1C(=O)[C@@]2(C)[C@H]([C@H](OC(=O)c3ccccc3)[C@]3(O)C[C@H](OC(=O)[C@H](O)[C@@H](NC(=O)c4ccccc4)c4ccccc4)C(C)=C1C3(C)C)[C@]1(OC(C)=O)CO[C@@H]1C[C@@H]2O [paclitaxel]	4
NC(=O)NO [hydroxyurea]	500000
COc1cccc2c1C(=O)c1c(O)c3c(c(O)c1C2=O)C[C@@](O)(C(=O)CO)C[C@@H]3O[C@H]1C[C@H](N)[C@H](O)[C@H](C)O1 [doxorubicin]	63
O=c1[nH]cc(F)c(=O)[nH]1 [5-fluorouracil]	1000
